# Measured values: article PMC8878452, “A Tale of Toxin Promiscuity: The Versatile Pharmacological Effects of Hcr 1b-2 Sea Anemone Peptide on Voltage-Gated Ion Channels” (Marine Drugs, 2022)
# Entries after “also recorded” stand apart in the source; their conditions may differ. Bridges are numbered along the chain shown (N, C = ends). Where no end group is shown, it is not given here.
# Legend:
# rKv1.6 = test: TEVC, Kv1.6 in Xenopus oocytes; format: cell-based, rat; details: 1 µM, n ≥ 3
# Source text: (§1) For the expression of Kv channels (rKv1.1, rKv1.2, rKv1.3, rKv1.4, rK1.5, rKv1.6, hKv2.1, hKv3.1, rKv4.2, hKv7.1, hKv7.2/7.3, hKv7.4, KQT1 (from the roundworm Caenorhabditis elegans), hKv10.1 (hEAG1), hKv11.1 (hERG1), and Shaker, from Drosophila melanogaster), Nav channels (rNav1.1, rNav1.2, rNav1.3, rNav1.4, hNav1.5, mNav1.6, hNav1.7, hNav1.8, and BgNav (from the cockroach Blattella germanica), as well as the hβ1 and rβ1 subunits, and Cav channels (rCav3.1, hCav3.2, and rCav3.3) in Xenopus oocytes, the linearized plasmids were transcribed using the T7 or SP6 mMESSAGEmMACHINE transcription kit (Ambion, Austin, TX, USA). Mature female animals were purchased from Nasco (Fort Atkinson, WI, USA) and were housed in the Aquatic Facility (KU Leuven) in compliance with the regulations of the European Union (EU) concerning the welfare of laboratory animals as declared in Directive 2010/63/EU. The use of X. laevis oocytes was approved by the Animal Ethics Committee of the KU Leuven, with the license number P186/2019. […]
# (§2) Whole-cell currents of oocytes were recorded 1 to 3 days after RNA injection. […] The current–voltage relationships were determined by 50 ms step depolarizations between −90 and +65 mV using 5 or 10 mV increments. All electrophysiological data were analyzed following the procedures described by Peigneur et al., 2012 [20].
# (§3) All values were expressed as means ± SEM. […]
# hNav1.8 = test: TEVC, Nav1.8 in Xenopus oocytes; format: cell-based, human
# Source text: (§4) For the expression of Kv channels (rKv1.1, rKv1.2, rKv1.3, rKv1.4, rK1.5, rKv1.6, hKv2.1, hKv3.1, rKv4.2, hKv7.1, hKv7.2/7.3, hKv7.4, KQT1 (from the roundworm Caenorhabditis elegans), hKv10.1 (hEAG1), hKv11.1 (hERG1), and Shaker, from Drosophila melanogaster), Nav channels (rNav1.1, rNav1.2, rNav1.3, rNav1.4, hNav1.5, mNav1.6, hNav1.7, hNav1.8, and BgNav (from the cockroach Blattella germanica), as well as the hβ1 and rβ1 subunits, and Cav channels (rCav3.1, hCav3.2, and rCav3.3) in Xenopus oocytes, the linearized plasmids were transcribed using the T7 or SP6 mMESSAGEmMACHINE transcription kit (Ambion, Austin, TX, USA). Mature female animals were purchased from Nasco (Fort Atkinson, WI, USA) and were housed in the Aquatic Facility (KU Leuven) in compliance with the regulations of the European Union (EU) concerning the welfare of laboratory animals as declared in Directive 2010/63/EU. The use of X. laevis oocytes was approved by the Animal Ethics Committee of the KU Leuven, with the license number P186/2019.
# (§5) Stage V–VI oocytes were collected from anesthetized female X. laevis frog as previously described, with the frogs anesthetized by placement in a 0.1% tricaine solution (amino benzoic acid ethyl ester; Merck, Kenilworth, NJ, USA). Oocyte microinjection was performed using a microinjector (Drummond Scientifc®, Broomall, PA, USA), with a programmed cRNA injection volume of 4–50 nL, depending on channel subtype. The oocytes were incubated in ND96 solution (96 mM NaCl; 2 mM KCl; 1.8 mM CaCl2; 2 mM MgCl2, and 5 mM HEPES, pH 7.4), supplemented with 50 mg/L of gentamicin sulfate.
# (§6) Electrophysiological measurements were performed at room temperature (18–22 °C) using the two-electrode voltage-clamp (TEVC) technique. Data were obtained using a GeneClamp 500 amplifier (Axon Instruments®, Burlingame, CA, USA) and Clampex9 software (Axon Instruments®, USA) was responsible for data acquisition and storage. Glass micropipettes were produced using glass capillaries (borosilicate WPI 1B120-6) and drawn in a WPI (World Precision Instruments®, Sarasota, FL, USA) manual stretcher. The bath and perfusion solutions were either the previously described ND96 (Nav and Kv channels) or calcium-free ND96 supplemented with 10 mM BaCl2 (Cav channels).
# (§7) Whole-cell currents of oocytes were recorded 1 to 3 days after RNA injection. The current and voltage electrodes were filled with 3 M KCl, and their resistance was adjusted from 1.0 to 2.5 MΩ. Currents were sampled at 20 kHz (Nav channels) and 10 kHz (Kv and Cav channels) and filtered using a four-pole Bessel low-pass Bessel filter at 1 kHz for sodium and […] for potassium and calcium, except for the hERG ion channel in which the currents were filtered at 1 kHz. Leak subtraction was performed using a P/4 protocol. Kv1.x currents were evoked by 500 ms depolarizations to 0 mV, followed by a 500 ms pulse to −50 mV from a holding potential of −90 mV. Kv2.1, Kv3.1, Kv4.2, Kv7.x, and KQT1 currents were elicited by 700 ms pulses to +20 mV from a holding potential of −90 mV. Current traces of the hERG1 channel were elicited by applying a +40 mV prepulse for 2 s, followed by a step of −120 mV for 2 s. Current traces of hEAG1 were elicited by a 2 s depolarization to 0 mV from a holding potential of −90 mV. Sodium current traces were evoked by a 100 ms depolarization to 0 mV. For Cav channels, current traces were elicited by 700 ms depolarizations to −20 mV from a holding potential of −90 mV. The current–voltage relationships were determined by 50 ms step depolarizations between −90 and +65 mV using 5 or 10 mV increments. All electrophysiological data were analyzed following the procedures described by Peigneur et al., 2012 [20].
# (§8) All values were expressed as means ± SEM. Differences in ionic currents between the control and toxin conditions were compared by a one-way ANOVA, followed by Dunnett’s multiple comparisons test. Differences were considered statistically significant when […].
# ASIC = tested on: ASIC; parameters: method as in 2 sources, one per row (each row's own in cited_ref): ref 17 = [17]; PMID 29684594; doi:10.1016/j.peptides.2018.04.013; 17. Kalina R. Gladkikh I. Dmitrenok P. Chernikov O. Koshelev S. Kvetkina A. Kozlov S. Kozlovskaya E. Monastyrnaya M. New APETx-like peptides from sea anemone Heteractis crispa modulate ASIC1a channels ||| ref 22 = [22]; PMID 15044953; doi:10.1038/sj.emboj.7600177; 22. Diochot S. Baron A. Rash L.D. Deval E. Escoubas P. Scarzello S. Salinas M. Lazdunski M. A new sea anemone peptide, APETx2, inhibits ASIC3, a major acid-sensitive channel in sensory neurons EMBO J.; details: cited from earlier work
# hKv3.1 = test: TEVC, Kv3.1 in Xenopus oocytes; format: cell-based, human; details: 1 µM, ND96 pH 7.4, 18–22 °C, n ≥ 3
# Source text: as §1, §2, §3
# rKv1.1 = test: TEVC, Kv1.1 in Xenopus oocytes; format: cell-based, rat
# Source text: as §4, §5, §6
# Whole-cell currents of oocytes were recorded 1 to 3 days after RNA injection. The current and voltage electrodes were filled with 3 M KCl, and their resistance was adjusted from 1.0 to 2.5 MΩ. […] The current–voltage relationships were determined by 50 ms step depolarizations between −90 and +65 mV using 5 or 10 mV increments. All electrophysiological data were analyzed following the procedures described by Peigneur et al., 2012 [20].
# as §3
# hKv11.1 (hERG1) = test: TEVC, hERG in Xenopus oocytes; format: cell-based, human
# Source text: as §4, §5, §6
# as §7, with “Current traces of hEAG1 were elicited by a 2 s depolarization to 0 mV from a holding potential of −90 mV. Sodium current traces were evoked by a 100 ms depolarization to 0 mV. For Cav channels, current traces were elicited by 700 ms depolarizations to −20 mV from a holding potential of −90 mV.” left out
# as §3
# hNav1.7 = test: TEVC, Nav1.7 in Xenopus oocytes; format: cell-based, human
# Source text: as §4, §5, §6, §7, §8
# rKv4.2 = test: TEVC, Kv4.2 in Xenopus oocytes; format: cell-based, rat; details: 1 µM, ND96 pH 7.4, 18–22 °C, n ≥ 3
# Source text: as §1, §2, §3
# hCav3.2 = test: TEVC, Cav3.2 in Xenopus oocytes; format: cell-based, human
# Source text: as §4, §5, §6
# as §7, with “Current traces of hEAG1 were elicited by a 2 s depolarization to 0 mV from a holding potential of −90 mV. Sodium current traces were evoked by a 100 ms depolarization to 0 mV. For Cav channels, current traces were elicited by 700 ms depolarizations to −20 mV from a holding potential of −90 mV.” left out
# as §3
# [1] = 1 µM, 100 ms depolarization to 0 mV, mean ± SEM, n ≥ 3
# [2] = 1 µM vs control (ND96 Ca2+ free)
sequence,measurement,setting,value
"GTPCKCHGYIGVYWFMLAGCPNGYGYNLSCPYFLGICCVKK (disulfide 4-37, 6-30, 20-38 (inferred)) [Hcr 1b-2]","activity (inhibition of current), Kv1.6","rKv1.6; 500 ms depolarization to 0 mV from −90 mV, mean ± SEM",31.5 ± 6.7%
same,"effect on potassium current, Kv1.6","rKv1.6; TEVC, ND96 pH 7.4, 18–22 °C",inhibition
same,"effect on activation or inactivation, Nav1.8",hNav1.8; 1 µM,no significant effect
same,"Shift in Vhalf activation, Nav1.8",hNav1.8; 1 µM vs control (ND96),−0.3 mV
same,"Shift in Vhalf inactivation, Nav1.8",hNav1.8; 1 µM vs control (ND96),−1.3 mV
same,"reduction of peak amplitude (INa), Nav1.8",hNav1.8; [1],18.5 ± 1.9%
same,"Vhalf activation, Nav1.8","hNav1.8; 1 µM, control (ND96) −2.3 ± 0.1, mean ± SEM, n ≥ 3",−2.6 ± 0.1 mV
same,"Vhalf inactivation, Nav1.8","hNav1.8; 1 µM, control (ND96) −35.6 ± 0.4, mean ± SEM, n ≥ 3",−36.9 ± 0.5 mV
same,ASIC inhibition,ASIC,ASIC inhibitors
same,"effect on potassium current, Kv3.1",hKv3.1,not active
same,"gating-modifier effect (voltage-current relationship), Kv1.1",rKv1.1; 1 µM,non-significant gating-modifier effect
same,"Shift in Vhalf activation, Kv1.1",rKv1.1; 1 µM vs control (ND96),−4.8 mV
same,"effect on potassium current, Kv1.1","rKv1.1; 1 µM, TEVC, ND96 pH 7.4, 18–22 °C, n ≥ 3",activation
same,"Vhalf activation, Kv1.1","rKv1.1; 1 µM, control (ND96) −13.8 ± 0.3, mean ± SEM",−18.6 ± 0.3 mV
same,"gating-modifier effect (voltage-current relationship), hERG",hKv11.1 (hERG1); 1 µM,stronger shift; also recorded: strong shift towards more positive potentials; also recorded: significantly shift the current-voltage relationship of hERG
same,"effect on potassium current, hERG","hKv11.1 (hERG1); 1 µM, TEVC, ND96 pH 7.4, 18–22 °C, n = 3",inhibition; also recorded: strong hERG modulator
same,"Vhalf activation, hERG (peak)","hKv11.1 (hERG1); 1 µM, peak current, control (ND96) −13.7 ± 0.5, mean ± SEM, n = 3",12.6 ± 0.4 mV
same,"Vhalf activation, hERG (tail)","hKv11.1 (hERG1); 1 µM, tail current, control (ND96) −22.9 ± 0.6, mean ± SEM, n = 3",0.6 ± 0.7 mV
same,inhibition at 1 µM,"hKv11.1 (hERG1); human, Xenopus laevis oocytes expressing hKv11.1 (hERG1), pH 7.4, +40 mV prepulse 2 s, then −120 mV 2 s, mean ± SEM, n = 3, read-out: activity (inhibition of current), hERG",51.7 ± 7.6%
same,"effect on activation or inactivation, Nav1.7",hNav1.7; 1 µM,no significant effect
same,"Shift in Vhalf activation, Nav1.7",hNav1.7; 1 µM vs control (ND96),−2.8 mV
same,"Shift in Vhalf inactivation, Nav1.7",hNav1.7; 1 µM vs control (ND96),−0.5 mV
same,"reduction of peak amplitude (INa) / inhibition, Nav1.7",hNav1.7; [1],38.7 ± 1.8%
same,"Vhalf activation, Nav1.7","hNav1.7; 1 µM, control (ND96) −26.9 ± 0.1, mean ± SEM, n ≥ 3",−29.7 ± 0.1 mV
same,"Vhalf inactivation, Nav1.7","hNav1.7; 1 µM, control (ND96) −38.1 ± 0.3, mean ± SEM, n ≥ 3",−38.6 ± 0.4 mV
same,"effect on potassium current, Kv4.2",rKv4.2,inhibition
same,"Shift in Vhalf activation, Cav3.2",hCav3.2; [2],−0.4 mV
same,"Shift in Vhalf inactivation, Cav3.2",hCav3.2; [2],0.5 mV
same,"inhibition, Cav3.2","hCav3.2; 1 µM, calcium-free ND96 + 10 mM BaCl2, 700 ms depolarization to −20 mV from −90 mV, mean ± SEM, n ≥ 3",35.1 ± 0.7%
same,"Vhalf activation, Cav3.2","hCav3.2; 1 µM, control (ND96 Ca2+ free) −31.9 ± 0.1, mean ± SEM, n ≥ 3",−32.3 ± 0.2 mV
same,"Vhalf inactivation, Cav3.2","hCav3.2; 1 µM, control (ND96 Ca2+ free) −46.6 ± 0.8, mean ± SEM, n ≥ 3",−46.1 ± 0.6 mV
